Source: patent US20210045385A1, “PYRIDAZINONE-SUBSTITUTED KETOXIMES AS HERBICIDES” (FMC Corporation, priority 2018, published 2021)

Experiments:
Format in all cases: in vivo
[1] = tested on: Italian ryegrass (Lolium mutiflorum); test: Test C postemergence, visual plant response rating
How it was run: (§1)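 Seeds sown in a loam–sand blend got a directed preemergence soil spray; postemergence plants (2–10 cm, one- to two-leaf stage) were sprayed with compound in a non-phytotoxic solvent plus surfactant. Injury was scored visually against untreated controls after about 10 d in a greenhouse on a 0–100 scale (100 = complete control).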

[2] = tested on: blackgrass (Alopecurus myosuroides); test: Test C postemergence, visual plant response rating; settings: Test C, postemergence
How it was run: as §1

[3] = tested on: corn (Zea mays); test: Test C postemergence, visual plant response rating; settings: Test C, postemergence
How it was run: as §1

[4] = tested on: foxtail, giant (giant foxtail, Setaria faberi); test: Test C postemergence, visual plant response rating; settings: Test C, postemergence
How it was run: as §1

[5] = tested on: pigweed (Amaranthus retroflexus); test: Test C postemergence, visual plant response rating
How it was run: as §1

[6] = tested on: ragweed (common ragweed, Ambrosia artemisiifolia); test: Test C postemergence, visual plant response rating
How it was run: as §1

[7] = tested on: galium (catchweed bedstraw, Galium aparine); test: Test C postemergence, visual plant response rating; settings: Test C, postemergence
How it was run: as §1

[8] = tested on: wheat (Triticum aestivum); test: Test C postemergence, visual plant response rating
How it was run: as §1

[9] = tested on: barnyardgrass (Echinochloa crus-galli); test: Test C postemergence, visual plant response rating; settings: Test C, postemergence
How it was run: as §1

[10] = tested on: kochia (Bassia scoparia); test: Test C postemergence, visual plant response rating; settings: Test C, postemergence
How it was run: as §1

[11] = tested on: Italian ryegrass (Lolium mutiflorum); test: Test C preemergence, visual plant response rating
How it was run: as §1

[12] = tested on: foxtail, giant (giant foxtail, Setaria faberi); test: Test C preemergence, visual plant response rating
How it was run: as §1

[13] = tested on: pigweed (Amaranthus retroflexus); test: Test C preemergence, visual plant response rating
How it was run: as §1

[14] = tested on: ragweed (common ragweed, Ambrosia artemisiifolia); test: Test C preemergence, visual plant response rating
How it was run: as §1

[15] = tested on: barnyardgrass (Echinochloa crus-galli); test: Test C preemergence, visual plant response rating
How it was run: as §1

[16] = tested on: kochia (Bassia scoparia); test: Test C preemergence, visual plant response rating
How it was run: as §1

[17] = tested on: duck salad (Heteranthera limosa); test: Test D flooded paddy test, visual plant response rating; settings: 250 g ai/ha, scale 0 to 100 (0 no effect, 100 complete control), 13 to 15 d
How it was run: (§2)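 Greenhouse paddy assay scored on a 0–100 visual scale after 13 to 15 d, where 100 means complete control and a dash marks no result; dosing was into 3 cm floodwater over 2-leaf plants.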

[18] = tested on: sedge umbrella (small-flower umbrella sedge, Cyperus difformis); test: as above; settings: 250 g ai/ha, scale 0 to 100 (0 no effect, 100 complete control), 13 to 15 d
How it was run: as §2

[19] = tested on: barnyardgrass (Echinochloa crus-galli); test: as above; settings: 250 g ai/ha, scale 0 to 100 (0 no effect, 100 complete control), 13 to 15 d
How it was run: as §2

[20] = tested on: rice (Oryza sativa); test: as above; settings: 250 g ai/ha, scale 0 to 100 (0 no effect, 100 complete control), 13 to 15 d
How it was run: as §2

[21] = Test C, postemergence, 125 g ai/ha
[22] = Test C, 31 g ai/ha, 0 is no effect, 100 is complete control

| SMILES | Ryegrass, Italian plant response rating (0 to 100 scale) ([1]; Postemergence, 31 g ai/ha) | Ryegrass, Italian plant response rating (0 to 100 scale) [1, 21] | Blackgrass plant response rating (0 to 100 scale) ([2]; 31 g ai/ha) | Blackgrass plant response rating (0 to 100 scale) ([2]; 125 g ai/ha) | Corn plant response rating (0 to 100 scale) ([3]; 31 g ai/ha) | Corn plant response rating (0 to 100 scale) ([3]; 125 g ai/ha) | Foxtail, Giant plant response rating (0 to 100 scale) ([4]; 31 g ai/ha) | Foxtail, Giant plant response rating (0 to 100 scale) ([4]; 125 g ai/ha) | Pigweed plant response rating (0 to 100 scale) ([5]; Postemergence, 31 g ai/ha) | Pigweed plant response rating (0 to 100 scale) [5, 21] | Ragweed plant response rating (0 to 100 scale) ([6]; Postemergence, 31 g ai/ha) | Ragweed plant response rating (0 to 100 scale) [6, 21] | Galium plant response rating (0 to 100 scale) ([7]; 31 g ai/ha) | Galium plant response rating (0 to 100 scale) ([7]; 125 g ai/ha) | Wheat plant response rating (0 to 100 scale) ([8]; Postemergence, 31 g ai/ha) | Wheat plant response rating (0 to 100 scale) [8, 21] | Barnyardgrass plant response rating (0 to 100 scale) ([9]; 31 g ai/ha) | Barnyardgrass plant response rating (0 to 100 scale) ([9]; 125 g ai/ha) | Kochia plant response rating (0 to 100 scale) ([10]; 31 g ai/ha) | Kochia plant response rating (0 to 100 scale) ([10]; 125 g ai/ha) | also measured |
| --- | --- | --- | --- | --- | --- | --- | --- | --- | --- | --- | --- | --- | --- | --- | --- | --- | --- | --- | --- | --- | --- |
| CON=C(c1cc(Cl)cc(Cl)c1F)c1c(O)c(C)nn(C)c1=O [Compound 153] | 90 | 100 | 50 | 80 | 20 | 50 | 90 | 100 | 100 | 100 | 90 | 100 | 100 | 100 | 40 | 80 | 80 | 90 | 90 | 100 | Ryegrass, Italian plant response rating (0 to 100 scale) ([11]; 125 g ai/ha): 100; Ryegrass, Italian plant response rating (0 to 100 scale) [11, 22]: 100; Foxtail, Giant plant response rating (0 to 100 scale) ([12]; 125 g ai/ha): 100; Foxtail, Giant plant response rating (0 to 100 scale) [12, 22]: 90; Pigweed plant response rating (0 to 100 scale) ([13]; 125 g ai/ha): 100; Pigweed plant response rating (0 to 100 scale) [13, 22]: 100; Ragweed plant response rating (0 to 100 scale) ([14]; 125 g ai/ha): 100; Ragweed plant response rating (0 to 100 scale) [14, 22]: 90; Barnyardgrass plant response rating (0 to 100 scale) ([15]; 125 g ai/ha): 90; Barnyardgrass plant response rating (0 to 100 scale) [15, 22]: 80; Kochia plant response rating (0 to 100 scale) ([16]; 125 g ai/ha): 90; Kochia plant response rating (0 to 100 scale) [16, 22]: 60; Plant response rating, Ducksalad (Flood) [17]: 55; Plant response rating, Sedge, Umbrella (Flood) [18]: 70; Plant response rating, Barnyardgrass (Flood) [19]: 80; Plant response rating, Rice (Flood) [20]: 40 |
| C#CCO/N=C(/c1cc(C)cc(Cl)c1)c1c(O)c(C)nn(C)c1=O [Compound 154] | 70 | 100 | 50 | 90 | 0 | 40 | 80 | 90 | 30 | 100 | 70 | 90 | 90 | 100 | 30 | 90 | 50 | 90 | 60 | 70 | Ryegrass, Italian plant response rating (0 to 100 scale) ([11]; 125 g ai/ha): 100; Ryegrass, Italian plant response rating (0 to 100 scale) [11, 22]: 40; Foxtail, Giant plant response rating (0 to 100 scale) ([12]; 125 g ai/ha): 100; Foxtail, Giant plant response rating (0 to 100 scale) [12, 22]: 60; Pigweed plant response rating (0 to 100 scale) ([13]; 125 g ai/ha): 90; Pigweed plant response rating (0 to 100 scale) [13, 22]: 40; Ragweed plant response rating (0 to 100 scale) ([14]; 125 g ai/ha): 80; Ragweed plant response rating (0 to 100 scale) [14, 22]: 40; Barnyardgrass plant response rating (0 to 100 scale) ([15]; 125 g ai/ha): 90; Barnyardgrass plant response rating (0 to 100 scale) [15, 22]: 40; Kochia plant response rating (0 to 100 scale) ([16]; 125 g ai/ha): 90; Kochia plant response rating (0 to 100 scale) [16, 22]: 0; Plant response rating, Ducksalad (Flood) [17]: 0; Plant response rating, Sedge, Umbrella (Flood) [18]: 0; Plant response rating, Barnyardgrass (Flood) [19]: 0; Plant response rating, Rice (Flood) [20]: 0 |
